Experimental findings from publication PMC10879502, “Linking ATP and allosteric sites to achieve superadditive binding with bivalent EGFR kinase inhibitors” (Communications Chemistry, 2024) are described below.

Experiment [1] addresses T1, WT EGFR kinase domain (Homo sapiens, UniProt P00533).
T1 construct: The EGFR kinase domain (residues 696–1022) was cloned into pTriEx; 6xHis (N, cleaved yes); GST (N, cleaved yes); made in house; host or cells: SF9 insect cells, baculovirus
The experiment is described as follows: HTRF KinEASE-TK kinase activity assay. The following applies: enzyme 10 nM, ATP 100 µM; read-out: Biochemical EGFR IC50, WT. It counts as biochemical.

In experiment [2] the target is T2, ABL1(F317I)-nonphosphorylated (Homo sapiens, UniProt P00519, F317I).
T2 construct: purchased Eurofins DiscoverX Corporation
The experiment is described as follows: KINOMEscan. Conditions: 1 μM. It counts as binding.

For experiment [3], the target named is ACVRL1 (Homo sapiens, UniProt P37023). Put plainly: KINOMEscan. Type of experiment: binding. The following applies: 1 μM.
The target of experiment [4] is AKT3 (Homo sapiens, UniProt Q9Y243). Put plainly: KINOMEscan. Type of experiment: binding. Conditions: 1 μM.
Experiment [5] concerns the target AMPK-alpha1 (Homo sapiens, UniProt Q13131). Put plainly: KINOMEscan. Type of experiment: binding. The following applies: 1 μM.
Experiment [6] addresses ASK1 (Homo sapiens, UniProt Q99683). The experiment is described as follows: KINOMEscan. Type of experiment: binding. Conditions: 1 μM.
In experiment [7] the target is T3, BMPR1B (Homo sapiens, UniProt O00238).
T3 construct: purchased Eurofins DiscoverX Corporation (KINOMEscan)
The experiment is described as follows: KINOMEscan. It counts as binding. Conditions: 1 μM.

For experiment [8], the target named is T4, BRSK1 (Homo sapiens, UniProt Q8TDC3).
T4 construct: purchased Eurofins DiscoverX Corporation (KINOMEscan)
Put plainly: KINOMEscan. Type of experiment: binding. Conditions: 1 μM.

Experiment [9] addresses T5, CAMK2A (Homo sapiens, UniProt Q9UQM7).
T5 construct: purchased Eurofins DiscoverX Corporation (KINOMEscan)
The experiment is described as follows: KINOMEscan. Type of experiment: binding. The following applies: 1 μM.

Experiment [10] has as its target T6, CDC2L1 (Homo sapiens, UniProt P21127).
T6 construct: purchased Eurofins DiscoverX Corporation (KINOMEscan)
Put plainly: KINOMEscan. Type of experiment: binding. The following applies: 1 μM.

Experiment [11] addresses T7, CDC2L5 (Homo sapiens, UniProt Q14004).
T7 construct: purchased Eurofins DiscoverX Corporation (KINOMEscan)
The experiment is described as follows: KINOMEscan. It counts as binding. The following applies: 1 μM. Here is the method:
(§1) Figure S19 : Metabolic stability determination of 4 in human liver microsomes, compared to a negative control containing bovine serum albumin instead of liver microsomes and a positive control using verapamil instead of compound.
(§2) Table S7 : Data was obtained from KINOMEscan TM using 1 μM of compound 4 against 468 kinases. Eurofins DiscoverX Corporation (San Diego), CA 92121, USA. Results stated as percent of control (POC), where lower values are associated with lower Kd values. […]
(§3) ABL1(F317L)-nonphosphorylated 37 […]
(§4) (1 picture or pasted object on this page, not shown here)

The target of experiment [12] is PRP4 (Homo sapiens, UniProt Q13523). The experiment is described as follows: KINOMEscan. Type of experiment: binding. Conditions: 1 μM. Here is the method: as §1, §2, §3, §4
In experiment [13] the target is CDK2 (Homo sapiens, UniProt P24941). Put plainly: KINOMEscan. Type of experiment: binding. Conditions: 1 μM.
Experiment [14] deals with CDK4-cyclinD1 (Homo sapiens, UniProt P11802). Put plainly: KINOMEscan. Conditions: 1 μM. It counts as binding.
Experiment [15] deals with T8, CSNK1G1 (Homo sapiens, UniProt Q9HCP0).
T8 construct: purchased Eurofins DiscoverX Corporation
The experiment is described as follows: KINOMEscan. It counts as binding. Conditions: 1 μM.

The target of experiment [16] is EGFR(L747-E749del+A750P) (Homo sapiens, UniProt P00533, A750P/DEL747-749). The experiment is described as follows: KINOMEscan. It counts as binding. The following applies: 1 μM.
For experiment [17], the target named is EIF2AK1 (Homo sapiens, UniProt Q9BQI3). The experiment is described as follows: KINOMEscan. Conditions: 1 μM. It counts as binding.
Experiment [18] has as its target ERN1 (Homo sapiens, UniProt O75460). The experiment is described as follows: KINOMEscan. It counts as binding. The following applies: 1 μM.
Experiment [19] addresses FGFR1 (Homo sapiens, UniProt P11362). The experiment is described as follows: KINOMEscan. Type of experiment: binding. The following applies: 1 μM.
The target in experiment [20] is T9, KIT(A829P) (Homo sapiens, UniProt P10721, A829P).
T9 construct: purchased Eurofins DiscoverX (KINOMEscan)
The experiment is described as follows: KINOMEscan. Type of experiment: binding. The following applies: 1 μM.

For experiment [21], the target named is T10, LTK (Homo sapiens, UniProt P29376).
T10 construct: purchased Eurofins DiscoverX Corporation
The experiment is described as follows: KINOMEscan. Type of experiment: binding. The following applies: 1 μM.

The target in experiment [22] is T11, MAP3K3 (Homo sapiens, UniProt Q99759).
T11 construct: purchased Eurofins DiscoverX Corporation
Put plainly: KINOMEscan. The following applies: 1 μM. Type of experiment: binding.

The target of experiment [23] is T12, MARK1 (Homo sapiens, UniProt Q9P0L2).
T12 construct: purchased Eurofins DiscoverX Corporation
Put plainly: KINOMEscan. The following applies: 1 μM. It counts as binding.

Experiment [24] addresses T13, MEK1 (Homo sapiens, UniProt Q02750).
T13 construct: purchased Eurofins DiscoverX Corporation
The experiment is described as follows: KINOMEscan. Conditions: 1 μM. It counts as binding.

Experiment [25] deals with T14, MERTK (Homo sapiens, UniProt Q12866).
T14 construct: purchased Eurofins DiscoverX Corporation
Put plainly: KINOMEscan. Type of experiment: binding. The following applies: 1 μM.

The target in experiment [26] is T15, MET(Y1235D) (Homo sapiens, UniProt P08581, Y1235D).
T15 construct: purchased Eurofins DiscoverX Corporation
Put plainly: KINOMEscan. It counts as binding. The following applies: 1 μM.

Experiment [27] concerns the target T16, MKNK2 (Homo sapiens, UniProt Q9HBH9).
T16 construct: purchased Eurofins DiscoverX Corporation
The experiment is described as follows: KINOMEscan. Type of experiment: binding. Conditions: 1 μM.

Experiment [28] addresses T17, MST3 (Homo sapiens, UniProt Q9Y6E0).
T17 construct: purchased Eurofins DiscoverX Corporation
The experiment is described as follows: KINOMEscan. Type of experiment: binding. Conditions: 1 μM.

Experiment [29] addresses T18, NEK4 (Homo sapiens, UniProt P51957).
T18 construct: purchased Eurofins DiscoverX Corporation
The experiment is described as follows: KINOMEscan. Type of experiment: binding. Conditions: 1 μM.

The target in experiment [30] is PFPK5(P.falciparum) (Plasmodium falciparum, UniProt P61075). Put plainly: KINOMEscan. It counts as binding. Conditions: 1 μM.
The target of experiment [31] is T19, TAK1 (Homo sapiens, UniProt O43318).
T19 construct: purchased Eurofins DiscoverX Corporation
The experiment is described as follows: KINOMEscan. It counts as binding. Conditions: 1 μM.

The target of experiment [32] is T20, TLK2 (Homo sapiens, UniProt Q86UE8).
T20 construct: purchased Eurofins DiscoverX Corporation
Put plainly: KINOMEscan. It counts as binding. Conditions: 1 μM.

The target of experiment [33] is T21, TNIK (Homo sapiens, UniProt Q9UKE5).
T21 construct: purchased Eurofins DiscoverX Corporation
The experiment is described as follows: KINOMEscan. Type of experiment: binding. Conditions: 1 μM.

In experiment [34] the target is T22, TRKC (Homo sapiens, UniProt Q16288).
T22 construct: purchased Eurofins DiscoverX Corporation
The experiment is described as follows: KINOMEscan. Type of experiment: binding. The following applies: 1 μM.

Experiment [35] has as its target T23, TSSK1B (Homo sapiens, UniProt Q9BXA7).
T23 construct: purchased Eurofins DiscoverX Corporation
The experiment is described as follows: KINOMEscan. Type of experiment: binding. Conditions: 1 μM.

Experiment [36] has as its target VEGFR2 (Homo sapiens, UniProt P35968). The experiment is described as follows: KINOMEscan. It counts as binding. The following applies: 1 μM.
Experiment [37] concerns the target ZAK (Homo sapiens, UniProt Q9NYL2). The experiment is described as follows: KINOMEscan. It counts as binding. Conditions: 1 μM.

The structures appear in SMILES notation.

T13 sequence (Q02750 whole entry): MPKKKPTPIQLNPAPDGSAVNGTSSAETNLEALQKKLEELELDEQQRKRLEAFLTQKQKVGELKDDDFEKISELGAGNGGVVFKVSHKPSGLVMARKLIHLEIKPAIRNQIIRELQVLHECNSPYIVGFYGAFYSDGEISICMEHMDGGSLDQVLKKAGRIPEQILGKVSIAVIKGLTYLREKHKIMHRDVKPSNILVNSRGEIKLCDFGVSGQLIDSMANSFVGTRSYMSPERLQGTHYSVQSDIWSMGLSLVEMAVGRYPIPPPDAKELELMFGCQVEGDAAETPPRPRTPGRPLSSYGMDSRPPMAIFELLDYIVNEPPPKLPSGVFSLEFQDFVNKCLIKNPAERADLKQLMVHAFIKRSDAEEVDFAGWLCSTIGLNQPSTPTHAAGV
T16 sequence (Q9HBH9 whole entry): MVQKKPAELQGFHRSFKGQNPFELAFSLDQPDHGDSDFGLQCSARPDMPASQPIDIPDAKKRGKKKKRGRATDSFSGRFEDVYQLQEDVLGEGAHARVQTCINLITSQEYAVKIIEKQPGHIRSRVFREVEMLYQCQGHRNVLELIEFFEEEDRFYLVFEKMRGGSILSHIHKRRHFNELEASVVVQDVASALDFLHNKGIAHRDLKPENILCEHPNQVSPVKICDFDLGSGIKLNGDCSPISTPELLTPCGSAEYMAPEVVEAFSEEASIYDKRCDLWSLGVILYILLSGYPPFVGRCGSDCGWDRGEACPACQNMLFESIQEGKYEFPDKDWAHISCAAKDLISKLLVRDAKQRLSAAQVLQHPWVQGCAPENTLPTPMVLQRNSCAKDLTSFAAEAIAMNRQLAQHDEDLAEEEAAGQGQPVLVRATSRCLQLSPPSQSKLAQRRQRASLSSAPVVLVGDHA
Chain of ASK1 (Q99683 whole entry): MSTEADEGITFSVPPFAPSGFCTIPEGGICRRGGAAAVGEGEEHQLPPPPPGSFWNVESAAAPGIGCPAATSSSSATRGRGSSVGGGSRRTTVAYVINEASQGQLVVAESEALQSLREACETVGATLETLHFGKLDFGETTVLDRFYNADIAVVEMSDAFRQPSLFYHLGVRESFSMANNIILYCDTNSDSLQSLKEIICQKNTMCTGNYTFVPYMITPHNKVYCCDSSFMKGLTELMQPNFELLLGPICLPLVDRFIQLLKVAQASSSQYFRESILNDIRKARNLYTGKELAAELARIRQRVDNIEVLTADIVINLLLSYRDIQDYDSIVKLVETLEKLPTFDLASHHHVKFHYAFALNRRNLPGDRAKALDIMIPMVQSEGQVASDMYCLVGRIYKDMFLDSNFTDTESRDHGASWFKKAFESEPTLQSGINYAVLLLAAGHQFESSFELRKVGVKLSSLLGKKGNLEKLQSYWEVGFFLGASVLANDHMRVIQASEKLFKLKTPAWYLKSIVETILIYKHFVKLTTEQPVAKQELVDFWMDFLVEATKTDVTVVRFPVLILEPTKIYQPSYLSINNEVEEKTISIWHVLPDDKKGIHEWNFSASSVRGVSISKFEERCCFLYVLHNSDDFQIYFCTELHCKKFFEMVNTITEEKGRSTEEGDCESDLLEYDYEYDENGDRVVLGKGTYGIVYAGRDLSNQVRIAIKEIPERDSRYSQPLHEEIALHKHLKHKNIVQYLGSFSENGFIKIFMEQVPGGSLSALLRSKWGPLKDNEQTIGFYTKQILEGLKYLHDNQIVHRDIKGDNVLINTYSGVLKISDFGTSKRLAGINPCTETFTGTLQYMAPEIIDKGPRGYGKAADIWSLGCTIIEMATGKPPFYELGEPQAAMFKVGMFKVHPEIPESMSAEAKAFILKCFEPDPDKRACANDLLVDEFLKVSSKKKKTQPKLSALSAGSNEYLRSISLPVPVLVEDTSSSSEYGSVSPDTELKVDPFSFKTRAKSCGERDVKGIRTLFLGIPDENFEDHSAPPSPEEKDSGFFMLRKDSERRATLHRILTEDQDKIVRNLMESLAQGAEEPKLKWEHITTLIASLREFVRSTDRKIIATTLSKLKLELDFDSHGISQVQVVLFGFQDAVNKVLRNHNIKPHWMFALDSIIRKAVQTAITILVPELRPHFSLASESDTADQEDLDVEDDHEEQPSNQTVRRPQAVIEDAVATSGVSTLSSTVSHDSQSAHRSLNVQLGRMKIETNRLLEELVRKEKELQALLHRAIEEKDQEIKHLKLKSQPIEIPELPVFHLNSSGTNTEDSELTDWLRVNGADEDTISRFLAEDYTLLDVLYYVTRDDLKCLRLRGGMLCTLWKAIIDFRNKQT
T5 sequence (Q9UQM7 whole entry): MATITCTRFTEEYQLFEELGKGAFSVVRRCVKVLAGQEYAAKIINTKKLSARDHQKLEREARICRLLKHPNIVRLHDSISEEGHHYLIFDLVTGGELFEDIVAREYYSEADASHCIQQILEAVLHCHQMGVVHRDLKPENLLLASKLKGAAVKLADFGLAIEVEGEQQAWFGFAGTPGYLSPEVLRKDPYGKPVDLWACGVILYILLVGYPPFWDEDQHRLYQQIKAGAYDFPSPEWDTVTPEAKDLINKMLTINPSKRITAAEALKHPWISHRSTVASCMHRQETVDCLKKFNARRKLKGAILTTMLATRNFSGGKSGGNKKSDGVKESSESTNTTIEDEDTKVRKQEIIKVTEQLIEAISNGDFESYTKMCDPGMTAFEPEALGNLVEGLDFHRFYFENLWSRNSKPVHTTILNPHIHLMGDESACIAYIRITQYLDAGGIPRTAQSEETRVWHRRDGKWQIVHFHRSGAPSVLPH
T21 sequence (Q9UKE5 whole entry): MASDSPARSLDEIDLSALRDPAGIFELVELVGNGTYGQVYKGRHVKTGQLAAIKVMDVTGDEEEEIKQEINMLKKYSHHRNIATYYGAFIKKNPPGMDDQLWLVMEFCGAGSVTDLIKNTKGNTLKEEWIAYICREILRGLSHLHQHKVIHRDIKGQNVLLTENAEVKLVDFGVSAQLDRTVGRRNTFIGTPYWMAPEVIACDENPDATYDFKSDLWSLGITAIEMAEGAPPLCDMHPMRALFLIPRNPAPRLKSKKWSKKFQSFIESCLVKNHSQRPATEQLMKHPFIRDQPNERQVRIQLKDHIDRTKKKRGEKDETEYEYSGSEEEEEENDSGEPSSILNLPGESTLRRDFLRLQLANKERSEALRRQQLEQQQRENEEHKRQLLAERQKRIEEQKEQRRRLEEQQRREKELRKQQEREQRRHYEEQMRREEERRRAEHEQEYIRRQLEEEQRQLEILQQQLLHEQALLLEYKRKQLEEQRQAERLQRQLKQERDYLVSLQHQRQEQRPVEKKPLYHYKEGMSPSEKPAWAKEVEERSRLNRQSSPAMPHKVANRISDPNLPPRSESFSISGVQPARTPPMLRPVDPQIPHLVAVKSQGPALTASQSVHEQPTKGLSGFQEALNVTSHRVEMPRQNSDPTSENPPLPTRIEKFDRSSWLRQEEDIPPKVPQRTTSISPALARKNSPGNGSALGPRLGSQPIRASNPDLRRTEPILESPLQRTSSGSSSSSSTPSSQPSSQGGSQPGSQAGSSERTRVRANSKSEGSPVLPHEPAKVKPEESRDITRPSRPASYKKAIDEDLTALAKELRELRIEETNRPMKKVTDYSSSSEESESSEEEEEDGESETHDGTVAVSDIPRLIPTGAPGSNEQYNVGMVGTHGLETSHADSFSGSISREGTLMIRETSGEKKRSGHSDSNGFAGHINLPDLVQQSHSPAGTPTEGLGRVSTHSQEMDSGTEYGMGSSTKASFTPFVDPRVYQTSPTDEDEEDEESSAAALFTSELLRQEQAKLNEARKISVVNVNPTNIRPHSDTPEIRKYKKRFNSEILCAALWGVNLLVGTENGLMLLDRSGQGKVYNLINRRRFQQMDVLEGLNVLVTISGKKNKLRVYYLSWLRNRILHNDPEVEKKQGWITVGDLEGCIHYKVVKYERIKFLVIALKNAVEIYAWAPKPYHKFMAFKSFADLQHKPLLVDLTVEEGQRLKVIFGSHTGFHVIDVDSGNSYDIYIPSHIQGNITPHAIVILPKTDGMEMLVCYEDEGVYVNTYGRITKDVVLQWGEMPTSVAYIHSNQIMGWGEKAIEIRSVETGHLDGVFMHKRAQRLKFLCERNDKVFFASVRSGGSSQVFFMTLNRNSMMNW
T11 sequence (Q99759 whole entry): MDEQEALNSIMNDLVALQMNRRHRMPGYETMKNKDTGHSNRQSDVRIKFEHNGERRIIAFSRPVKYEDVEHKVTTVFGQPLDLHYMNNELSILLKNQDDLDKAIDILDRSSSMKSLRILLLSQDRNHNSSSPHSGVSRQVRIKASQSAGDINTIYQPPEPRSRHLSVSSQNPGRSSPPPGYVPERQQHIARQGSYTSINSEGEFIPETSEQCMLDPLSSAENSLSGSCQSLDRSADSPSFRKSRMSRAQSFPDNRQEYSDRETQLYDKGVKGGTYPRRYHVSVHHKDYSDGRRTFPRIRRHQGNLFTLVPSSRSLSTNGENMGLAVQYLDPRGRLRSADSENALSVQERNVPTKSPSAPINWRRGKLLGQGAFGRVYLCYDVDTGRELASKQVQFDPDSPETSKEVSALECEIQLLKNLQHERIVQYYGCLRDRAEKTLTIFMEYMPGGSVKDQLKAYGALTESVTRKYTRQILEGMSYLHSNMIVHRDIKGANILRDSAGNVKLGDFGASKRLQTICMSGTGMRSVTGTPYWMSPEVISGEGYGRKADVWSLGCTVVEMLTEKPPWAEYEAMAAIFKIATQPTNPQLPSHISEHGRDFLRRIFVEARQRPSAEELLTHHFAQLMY
T23 sequence (Q9BXA7 whole entry): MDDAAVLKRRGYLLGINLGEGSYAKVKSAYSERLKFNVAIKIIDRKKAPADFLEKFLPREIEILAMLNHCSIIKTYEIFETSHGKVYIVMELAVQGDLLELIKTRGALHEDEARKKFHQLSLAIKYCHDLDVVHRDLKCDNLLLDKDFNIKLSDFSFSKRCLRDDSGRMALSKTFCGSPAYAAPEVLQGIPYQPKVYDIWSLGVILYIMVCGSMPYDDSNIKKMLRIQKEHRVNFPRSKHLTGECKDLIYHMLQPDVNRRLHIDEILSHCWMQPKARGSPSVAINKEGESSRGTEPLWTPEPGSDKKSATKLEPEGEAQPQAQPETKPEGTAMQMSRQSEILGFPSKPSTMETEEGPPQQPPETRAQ

Regarding `CSc1nc(-c2cccc(NC(=O)c3cccc4c3NC(=O)c3ccccc3N4)c2)c(-c2ccnc(NC(C)=O)c2)[nH]1` [Compound 2], in experiment [1], the IC50 is < 10 nM.

For the compound `C=CC(=O)Nc1ccc(OC)c(Nc2cc(-c3[nH]c(CC)nc3-c3cccc(NC(=O)c4cccc5c4NC(=O)c4ccccc4N5)c3)ccn2)c1` [Compound 4], the POC was 40% of control in experiment [2]; 75% of control in experiment [3]; 100% of control in experiment [4]; 81% of control in [5]; 100% of control in experiment [6]; 100% of control in experiment [7]. Moreover, the POC in experiment [8] is listed as 100% of control; in experiment [9] it was 65% of control; in experiment [10], 100% of control; in experiment [11], 74% of control; in experiment [12], 46% of control; in experiment [13], 95% of control. The POC in experiment [14] is reported as 94% of control; in experiment [15], 93% of control; in experiment [16], 8% of control; in experiment [17] it was 75% of control; in experiment [18], 74% of control; in experiment [19], 86% of control. The POC is on record as 56% of control in [20]; 48% of control in experiment [21]; 51% of control in experiment [22]; 92% of control in [23]; 100% of control in experiment [24]; 83% of control in experiment [25]. Moreover, the POC is reported as 97% of control in [26]; 100% of control in experiment [27]; 73% of control in experiment [28]; 100% of control in experiment [29]; 100% of control in experiment [30]; 95% of control in [31]. In addition, the POC in experiment [32] was 87% of control; in [33], 33% of control; in experiment [34], 87% of control; in experiment [35], 95% of control; in [36], 100% of control; in [37] it was 87% of control.
